Measurements published in paper PMC7155171, “Probing the Open Global Health Chemical Diversity Library for Multistage-Active Starting Points for Next-Generation Antimalarials” (ACS Infectious Diseases, 2020).

How the values were obtained:
[1] = system: P. berghei liver stage (PbLuc); assay: P. berghei luciferase liver stage (PbLuc) assay in HepG2-A16-CD81 hepatocytes; type: cell-based, Plasmodium berghei; details: Plasmodium berghei; for IC50: HepG2-A16-CD81, 12pt dose response, read-out: PbLuc 12pt dose response: IC50; for Emax: HepG2-A16-CD81, 48 h, 12pt dose response, maximum inhibition
[2] = molecular target: recombinant firefly luciferase (Photinus pyralis, UniProt P08659); assay: biochemical; details: dose response; for Emax: maximum inhibition, read-out: rLuc inhibition dose response: Maximum inhibition (%); for IC50: read-out: rLuc inhibition dose response: IC50
[3] = HepG2 cytotoxicity screening (CellTiter-Glo); details: human, uninfected HepG2-A16-CD81 (EGFP) hepatocytes
[4] = system: HepG2-A16-CD81 hepatocytes; assay: HepG2 cytotoxicity screening (CellTiter-Glo); details: for HepG2 cytotoxicity 12pt dose response: Maximum inhibition (%): 12pt dose response

Chain of recombinant firefly luciferase (P08659 whole entry): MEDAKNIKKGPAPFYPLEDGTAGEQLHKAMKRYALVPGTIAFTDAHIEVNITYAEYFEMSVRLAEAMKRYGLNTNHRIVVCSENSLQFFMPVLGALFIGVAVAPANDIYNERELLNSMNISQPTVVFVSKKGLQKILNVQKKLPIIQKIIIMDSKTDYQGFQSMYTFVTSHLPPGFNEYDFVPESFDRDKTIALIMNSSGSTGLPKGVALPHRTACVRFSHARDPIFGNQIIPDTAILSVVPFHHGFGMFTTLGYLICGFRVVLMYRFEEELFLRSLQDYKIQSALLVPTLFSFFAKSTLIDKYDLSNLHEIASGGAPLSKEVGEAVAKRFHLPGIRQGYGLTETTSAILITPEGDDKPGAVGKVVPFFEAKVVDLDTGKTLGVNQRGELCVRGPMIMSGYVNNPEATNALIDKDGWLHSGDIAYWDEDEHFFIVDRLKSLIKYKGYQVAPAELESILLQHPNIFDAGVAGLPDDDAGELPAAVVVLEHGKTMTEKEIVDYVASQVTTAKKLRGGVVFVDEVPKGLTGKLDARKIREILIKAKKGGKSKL

Row | SMILES | IC50 [1] | Emax [2] | IC50 [2] | IC50 [3] | HepG2 cytotoxicity 12pt dose response: Maximum inhibition (%) [4] | Emax [1] | inhibition at 2 µM [3] | HepG2 Cytotoxicity primary screen (2uM): % Inhibition [4]
1 | Cc1ccc(Nc2nccc(C3CCN(CC(N)=O)C3)n2)nc1 (centres unmarked) [UCSD-0800962] | 0.00289 µM | 81.5% | 0.0401 µM | > 25 µM | 15.1% | – | – | –
2 | COc1cc(C)c(CN2CCc3nc4ccsc4c(=O)n3CC2)cc1C [UCSD-0801369] | 8.88 µM | 5.88% | > 25 µM | > 25 µM | 25.1% | 95.5% | 0% | –
3 | O=c1c2sccc2nc2n1CCN(Cc1ccccc1C(F)(F)F)CC2 [UCSD-0801403] | 6.77 µM | 18.4% | > 25 µM | > 25 µM | 19.7% | 95.7% | 0% | –
4 | CSc1ccc(CN2C[C@@H]3CC[C@@](O)(c4ccc(C)cn4)[C@@H]3C2)cc1 [UCSD-0801744] | 23 µM | 38.3% | > 25 µM | > 25 µM | 9.86% | 66.8% | 2.45% | –
5 | Clc1ccc(-c2ccc(C3CNCCO3)nc2)cc1 (centres unmarked) [UCSD-0802213] | < 0.000141 µM | 95.9% | 0.0623 µM | > 25 µM | -1.02% | – | 18.1% | –
6 | COc1ccc(-c2ccc(C3CNCCO3)nc2)cc1 (centres unmarked) [UCSD-0802458] | < 0.000141 µM | 89.6% | 0.0276 µM | > 50 µM | -13.4% | 94% | 23.7% | –
7 | Cc1ccc(-c2ccc(C3CNCCO3)nc2)cc1 (centres unmarked) [UCSD-0802459] | < 0.000141 µM | 88.3% | 0.00428 µM | > 50 µM | 48.6% | 98.6% | 25.3% | –
8 | Cc1cc(-c2cnc(NCc3cccnc3)nc2C(C)(C)C)on1 [UCSD-0802583] | 10.1 µM | 6.14% | > 25 µM | > 25 µM | 45.3% | 86.4% | – | -8.43%
9 | CC(C)(C)OC(=O)N1CCCN(Cc2ccon2)c2ccccc21 [UCSD-0805052] | 8.56 µM | 18.4% | > 25 µM | > 25 µM | 13.5% | 93.5% | 10.4% | –
10 | CCN1CC(CN(C)c2cc(C)nc(N)n2)Oc2ccccc21 (centres unmarked) [UCSD-0806866] | 5.15 µM | 15.4% | > 25 µM | 20.6 µM | 73.7% | 93.5% | -3.08% | –
11 | COC(=O)CSCc1noc(-c2ccc(C)cc2)n1 [UCSD-0807935] | 0.0335 µM | 62.8% | > 25 µM | > 25 µM | 3.73% | 77.1% | -4.01% | –
12 | N#Cc1c(Cl)nsc1NCc1cccnc1OCC(F)(F)F [UCSD-0808444] | 14.9 µM | 43.9% | > 25 µM | > 25 µM | -0.683% | 69.5% | – | 4.29%
13 | CCNc1ccnc(CN2CCCC2C(=O)Nc2nccs2)c1 (centres unmarked) [UCSD-0809356] | 4.46 µM | 21.2% | > 25 µM | > 25 µM | 2.09% | – | – | 1.30%
14 | CC(C(=O)Nc1sccc1C(N)=O)N(C)CCOc1ccccc1 (centres unmarked) [UCSD-0809872] | 0.787 µM | 17.7% | > 50 µM | > 25 µM | 7.13% | 95.7% | 5.59% | –
15 | CC(C)(C)n1ncc2c1CCCC2NCc1ccc2c(c1)OCCO2 (centres unmarked) [UCSD-0811309] | 8.69 µM | 85% | 15 µM | > 25 µM | 2.92% | 87% | -4.43% | –
16 | NC(=O)c1ccc(N2CCCCC2)c(NC(=O)c2ccc(F)cc2F)c1 [UCSD-0811362] | 8.87 µM | 19.1% | > 25 µM | > 25 µM | 5.59% | 81% | 2.8% | –
17 | Cc1cn2c(n1)C(CNCC1=Cc3ccccc3OC1)CCC2 (centres unmarked) [UCSD-0812993] | > 2.78 µM | 66.8% | > 25 µM | > 25 µM | 24.6% | 93.1% | – | -0.92%

Row | SMILES | IC50 [1] | Emax [2] | IC50 [2] | IC50 [3] | HepG2 cytotoxicity 12pt dose response: Maximum inhibition (%) [4] | Emax [1] | inhibition at 2 µM [3] | HepG2 Cytotoxicity primary screen (2uM): % Inhibition [4]
18 | Cc1nc(C(=O)NC2CCN(CCOc3ccc(Br)cc3)CC2)cs1 [UCSD-0818164] | 13.6 µM | 32.1% | > 25 µM | > 25 µM | 35.2% | 98.3% | – | 17.63%
19 | Cc1ncc(C(=O)NC2CCN(CCOc3ccc(Br)cc3)CC2)s1 [UCSD-0818166] | 15.8 µM | 32.8% | > 25 µM | > 25 µM | 7.96% | 96.5% | 1.78% | –
20 | CN1CCOC(C(=O)Nc2ccc3c(c2)nc(C(C)(C)C)n3C)C1 (centres unmarked) [UCSD-0818200] | 0.00222 µM | 88.4% | 13.4 µM | > 25 µM | 0.658% | – | – | –
21 | N#Cc1c(Cl)nsc1NCC1(c2ccccc2)CCC1 [UCSD-0818294] | 13.2 µM | 16.9% | > 25 µM | > 25 µM | 34.3% | 98.3% | – | 11.95%
22 | O=C(CN1CCCC(c2ccn[nH]2)C1)Nc1nc2c(s1)CCCC2 (centres unmarked) [UCSD-0818422] | 4.53 µM | 6.65% | > 25 µM | > 25 µM | 8.88% | 95.9% | – | 7.13%
23 | O=C(c1ccc(Br)o1)N1CCN(Cc2ccc(OC(F)(F)F)cc2)CC1 [UCSD-0819339] | 9.24 µM | 10.9% | > 25 µM | > 25 µM | 57.1% | 97.7% | 0% | –
24 | CCc1nc(CN2CCN(c3ncnc4cc(F)ccc34)CC2)no1 [UCSD-0819439] | 2.76 µM | 3.14% | > 25 µM | 6.37 µM | 64.7% | 95.7% | 13.2% | –
25 | COc1ccc(-c2nc(CN3CC(n4cc(C)cn4)C3)no2)cc1 [UCSD-0819446] | 11.2 µM | 6.87% | > 25 µM | > 25 µM | 1.19% | 82.5% | – | -12.79%
26 | CC(NC(=O)c1cc(-c2cccc(Cl)c2)no1)C(=O)N1CCCC1 (centres unmarked) [UCSD-0819519] | 11 µM | 37.2% | > 25 µM | > 25 µM | 0.675% | 91.8% | – | 0.00%
27 | CC(=O)c1c(F)cccc1N1CCC(Cc2cccnc2)CC1 [UCSD-0819611] | 4.23 µM | 7.02% | > 25 µM | 15.4 µM | 73% | 116% | 15.8% | –
28 | COc1cc(CN(C)C(=O)Cc2c(C)nn(C)c2C)ccc1OC(F)F [UCSD-0819780] | 2.11 µM | 6.77% | > 25 µM | > 25 µM | 55.1% | 80.1% | 7.57% | –
29 | CCc1ccc(-c2ncc3c(n2)N(C)CCN(CCN(C)C)C3=O)cc1 [UCSD-0824219] | 12.1 µM | 7.09% | > 25 µM | > 25 µM | 6.88% | 81.1% | – | 4.38%
30 | Cc1ccc(Sc2ccc(CN3CCC4(CCCNC4=O)C3)o2)cc1 (centres unmarked) [UCSD-0825128] | 14.7 µM | 21.8% | > 25 µM | > 25 µM | 8.34% | 95% | – | -4.20%
31 | CC1(c2ccccc2)CCCN(Cc2cncn2C2CCCC2)C1 (centres unmarked) [UCSD-0827293] | 13.5 µM | 7.12% | > 25 µM | 18.7 µM | 58% | 95.5% | – | -6.73%
32 | Clc1ccccc1-c1cc(CNc2ncnc3c2CCNCC3)no1 [UCSD-0827811] | 13.6 µM | 12.2% | > 25 µM | > 25 µM | 49.9% | 93.4% | – | -1.07%
33 | CC(C)CN1CCCC1c1ccc(C(=O)Nc2cccnc2)s1 (centres unmarked) [UCSD-0828121] | 9.26 µM | 38.6% | > 25 µM | > 25 µM | 5.88% | – | 3.83% | –
